Results taken from patent publication US20240083861A1, “HSD17B13 INHIBITORS AND USES THEREOF” (FL2022-001, Inc., priority 2020, published 2024).

biological target: T1, Recombinant human HSD17B13 enzyme (Homo sapiens, UniProt Q7Z5P4); assay: HSD17b13 NAD(P)H-Glo biochemical assay; conditions: 50 uM estradiol, 1 mM NAD+, NAD(P)H-Glo luminescence; read-out: HSD17β13 IC50
T1 sequence (Q7Z5P4 20-300): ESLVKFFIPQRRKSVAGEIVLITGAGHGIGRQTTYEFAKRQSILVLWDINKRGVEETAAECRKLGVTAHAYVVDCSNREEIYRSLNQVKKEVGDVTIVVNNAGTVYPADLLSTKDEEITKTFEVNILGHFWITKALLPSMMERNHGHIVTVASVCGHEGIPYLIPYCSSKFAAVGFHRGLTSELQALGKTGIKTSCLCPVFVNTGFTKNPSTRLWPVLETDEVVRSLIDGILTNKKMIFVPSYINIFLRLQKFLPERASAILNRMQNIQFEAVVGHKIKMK
Procedure, shortened: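 Recombinant human HSD17B13 in 20 mM Tris pH7.4 with 0.002% Tween-20 and 0.02% BSA was preincubated with inhibitor for 20 minutes at RT. The reaction ran 3 hours at 37° C with 50 uM estradiol and 1 mM NAD+ (final). NADH formed was detected by NAD(P)H-Glo luminescence after 1 hour at RT.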

SMILES | IC50 [nM]
Cn1nc(-c2cc(C(F)(F)F)c(F)c(O)c2F)c2cnc(N3CCN(C(=O)O)C(=O)C3)cc21 [Compound 9.79, 4-(3-(2,4-Difluoro-3-hydroxy-5-(trifluoromethyl)phenyl)-1-methyl-1H-pyrazolo[4,3-c]pyridin-6-yl)-2-oxopiperazine-1-carboxylic acid] | 1000 to 30000
Cn1nc(-c2cc(C(F)(F)F)c(F)c(O)c2F)c2cnc(N3CCC(C(N)=O)CC34CC4)cc21 (stereo not shown) [Compound 9.85, 4-(3-(2,4-Difluoro-3-hydroxy-5-(trifluoromethyl)phenyl)-1-methyl-1H-pyrazolo[4,3-c]pyridin-6-yl)-4-azaspiro[2.5]octane-7-carboxamide] | 100 to 1000
CC(=O)N1CCN(c2cc3c(cn2)c(-c2cc(C(F)(F)F)c(F)c(O)c2F)nn3C)C2(CC2)C1 [Compound 9.87, 1-(4-(3-(2,4-Difluoro-3-hydroxy-5-(trifluoromethyl)phenyl)-1-methyl-1H-pyrazolo[4,3-c]pyridin-6-yl)-4,7-diazaspiro[2.5]octan-7-yl)ethanone] | < 100
Cn1nc(-c2cc(C(F)(F)F)c(F)c(O)c2F)c2cnc(N3CCOC4(CCS(=O)(=O)CC4)C3)cc21 [Compound 9.88, 4-(3-(2,4-Difluoro-3-hydroxy-5-(trifluoromethyl)phenyl)-1-methyl-1H-pyrazolo[4,3-c]pyridin-6-yl)-1-oxa-9-thia-4-azaspiro[5.5]undecane 9,9-dioxide] | < 100
Cn1nc(-c2cc(C(F)(F)F)c(F)c(O)c2F)c2cnc(N3CCOC(C)(C#N)C3)cc21 (stereo not shown) [Compound 9.89, 4-(3-(2,4-Difluoro-3-hydroxy-5-(trifluoromethyl)phenyl)-1-methyl-1H-pyrazolo[4,3-c]pyridin-6-yl)-2-methylmorpholine-2-carbonitrile] | < 100
Cn1nc(-c2cc(C(F)(F)F)c(F)c(O)c2F)c2cnc(N3C[C@H]4CC[C@@H](C3)O4)cc21 [Compound 9.90, 3-(6-(cis-8-Oxa-3-azabicyclo[3.2.1]octan-3-yl)-1-methyl-1H-pyrazolo[4,3-c]pyridin-3-yl)-2,6-difluoro-5-(trifluoromethyl)phenol] | < 100
Cn1nc(-c2cc(C(F)(F)F)c(F)c(O)c2F)c2cnc(N3CCN(c4ccccc4)C(=O)C3)cc21 [Compound 9.91, 4-(3-(2,4-Difluoro-3-hydroxy-5-(trifluoromethyl)phenyl)-1-methyl-1H-pyrazolo[4,3-c]pyridin-6-yl)-1-phenylpiperazin-2-one] | < 100
Cn1nc(-c2cc(C(F)(F)F)c(F)c(O)c2F)c2cnc(N3CCNC(=O)C3)cc21 [Compound 9.92, 4-(3-(2,4-Difluoro-3-hydroxy-5-(trifluoromethyl)phenyl)-1-methyl-1H-pyrazolo[4,3-c]pyridin-6-yl)piperazin-2-one] | 100 to 1000
COC12CC(CN(c3cc4c(cn3)c(-c3cc(C(F)(F)F)c(F)c(O)c3F)nn4C)C1)C2 [Compound 9.93, 2,6-Difluoro-3-(6-(1-methoxy-3-azabicyclo[3.1.1]heptan-3-yl)-1-methyl-1H-pyrazolo[4,3-c]pyridin-3-yl)-5-(trifluoromethyl)phenol] | < 100
Cn1nc(-c2cc(C(F)(F)F)c(F)c(O)c2F)c2cnc(NC3CCOCC3)cc21 [Compound 9.94, 2,6-Difluoro-3-(1-methyl-6-((tetrahydro-2H-pyran-4-yl)amino)-1H-pyrazolo[4,3-c]pyridin-3-yl)-5-(trifluoromethyl)phenol] | < 100
CC1COC2(CCC2)CN1c1cc2c(cn1)c(-c1cc(C(F)(F)F)c(F)c(O)c1F)nn2C (stereo not shown) [Compound 9.95, 2,6-Difluoro-3-(1-methyl-6-(7-methyl-5-oxa-8-azaspiro[3.5]nonan-8-yl)-1H-pyrazolo[4,3-c]pyridin-3-yl)-5-(trifluoromethyl)phenol] | < 100
CN1CCN(c2cc3c(cn2)c(-c2cc(C(F)(F)F)c(F)c(O)c2F)nn3C)C2(CCC2)C1 [Compound 9.96, 2,6-Difluoro-3-(1-methyl-6-(8-methyl-5,8-diazaspiro[3.5]nonan-5-yl)-1H-pyrazolo[4,3-c]pyridin-3-yl)-5-(trifluoromethyl)phenol] | < 100
Cn1nc(-c2cc(C(F)(F)F)c(F)c(O)c2F)c2cnc(N3CCOC(CO)C3)cc21 (stereo not shown) [Compound 9.97, 2,6-Difluoro-3-(6-(2-(hydroxymethyl)morpholino)-1-methyl-1H-pyrazolo[4,3-c]pyridin-3-yl)-5-(trifluoromethyl)phenol] | 100 to 1000
COCC1(Nc2cc3c(cn2)c(-c2cc(C(F)(F)F)c(F)c(O)c2F)nn3C)CCC1 [Compound 9.98, 2,6-Difluoro-3-(6-((1-(methoxymethyl)cyclobutyl)amino)-1-methyl-1H-pyrazolo[4,3-c]pyridin-3-yl)-5-(trifluoromethyl)phenol] | < 100
Cn1nc(-c2cc(C(F)(F)F)c(F)c(O)c2F)c2cnc(N3CCCC34CCOCC4)cc21 [Compound 9.99, 2,6-Difluoro-3-(1-methyl-6-(8-oxa-1-azaspiro[4.5]decan-1-yl)-1H-pyrazolo[4,3-c]pyridin-3-yl)-5-(trifluoromethyl)phenol] | < 100
Cn1nc(-c2cc(C(F)(F)F)c(F)c(O)c2F)c2cnc(N3[C@@H]4CNC[C@H]3COC4)cc21 [Compound 9.100, 3-(6-(cis-3-Oxa-7,9-diazabicyclo[3.3.1]nonan-9-yl)-1-methyl-1H-pyrazolo[4,3-c]pyridin-3-yl)-2,6-difluoro-5-(trifluoromethyl)phenol] | 100 to 1000

Next, values leading:

IC50 [nM] | SMILES
< 100 | COCCn1nc(-c2cc(C(F)(F)F)c(F)c(O)c2F)c2cnc(N3CCOCC34CC4)cc21 [Compound 9.73, 2,6-Difluoro-3-(1-(2-methoxyethyl)-6-(7-oxa-4-azaspiro[2.5]octan-4-yl)-1H-pyrazolo[4,3-c]pyridin-3-yl)-5-(trifluoromethyl)phenol]
< 100 | Cn1nc(-c2cc(C(F)(F)F)c(F)c(O)c2F)c2cnc(N3CCN(S(C)(=O)=O)CC34CC4)cc21 [Compound 9.74, 2,6-Difluoro-3-(1-methyl-6-(7-(methylsulfonyl)-4,7-diazaspiro[2.5]octan-4-yl)-1H-pyrazolo[4,3-c]pyridin-3-yl)-5-(trifluoromethyl)phenol]
< 100 | COC1CCN(c2cc3c(cn2)c(-c2cc(C(F)(F)F)c(F)c(O)c2F)nn3C)C2(CCC2)C1 (stereo not shown) [Compound 9.75, 2,6-Difluoro-3-(6-(8-methoxy-5-azaspiro[3.5]nonan-5-yl)-1-methyl-1H-pyrazolo[4,3-c]pyridin-3-yl)-5-(trifluoromethyl)phenol]
< 100 | Cn1nc(-c2cc(C(F)(F)F)c(F)c(O)c2F)c2cnc(N3CCOCC3C3CCOCC3)cc21 (stereo not shown) [Compound 9.76, 2,6-Difluoro-3-(1-methyl-6-(3-(tetrahydro-2H-pyran-4-yl)morpholino)-1H-pyrazolo[4,3-c]pyridin-3-yl)-5-(trifluoromethyl)phenol]
< 100 | COCC1CN(c2cc3c(cn2)c(-c2cc(C(F)(F)F)c(F)c(O)c2F)nn3C)CCO1 (stereo not shown) [Compound 9.77, 2,6-Difluoro-3-(6-(2-(methoxymethyl)morpholino)-1-methyl-1H-pyrazolo[4,3-c]pyridin-3-yl)-5-(trifluoromethyl)phenol]
< 100 | Cn1nc(-c2cc(C(F)(F)F)c(F)c(O)c2F)c2cnc(N3CCOC4(CCC4)C3)cc21 [Compound 9.78, 2,6-Difluoro-3-(1-methyl-6-(5-oxa-8-azaspiro[3.5]nonan-8-yl)-1H-pyrazolo[4,3-c]pyridin-3-yl)-5-(trifluoromethyl)phenol]
< 100 | CNC(=O)C1CN(c2cc3c(cn2)c(-c2cc(C(F)(F)F)c(F)c(O)c2F)nn3C)CCO1 (stereo not shown) [Compound 9.80, 4-(3-(2,4-Difluoro-3-hydroxy-5-(trifluoromethyl)phenyl)-1-methyl-1H-pyrazolo[4,3-c]pyridin-6-yl)-N-methylmorpholine-2-carboxamide]
< 100 | Cn1nc(-c2cc(C(F)(F)F)c(F)c(O)c2F)c2cc(F)c(N3CCOCC34CC4)nc21 [Compound 9.81, 2,6-Difluoro-3-(5-fluoro-1-methyl-6-(7-oxa-4-azaspiro[2.5]octan-4-yl)-1H-pyrazolo[3,4-b]pyridin-3-yl)-5-(trifluoromethyl)phenol]
< 100 | Cn1nc(-c2cc(C(F)(F)F)c(F)c(O)c2F)c2cnc(N3CCOC4(CCOCC4)C3)cc21 [Compound 9.82, 2,6-Difluoro-3-(1-methyl-6-(1,9-dioxa-4-azaspiro [5.5]undecan-4-yl)-1H-pyrazolo[4,3-c]pyridin-3-yl)-5-(trifluoromethyl)phenol]
< 100 | COC1CCN(c2cc3c(cn2)c(-c2cc(C(F)(F)F)c(F)c(O)c2F)nn3C)C2(CC2)C1 (stereo not shown) [Compound 9.83, 2,6-Difluoro-3-(6-(7-methoxy-4-azaspiro[2.5]octan-4-yl)-1-methyl-1H-pyrazolo[4,3-c]pyridin-3-yl)-5-(trifluoromethyl)phenol]
< 100 | Cn1nc(-c2cc(C(F)(F)F)c(F)c(O)c2F)c2cnc(N3CCOCC34CCCC4)cc21 [Compound 9.84, 2,6-Difluoro-3-(1-methyl-6-(9-oxa-6-azaspiro[4.5]decan-6-yl)-1H-pyrazolo[4,3-c]pyridin-3-yl)-5-(trifluoromethyl)phenol]
< 100 | COC1(CN(C)c2cc3c(cn2)c(-c2cc(C(F)(F)F)c(F)c(O)c2F)nn3C)CCC1 [Compound 9.86, 2,6-Difluoro-3-(6-(((1-methoxycyclobutyl)methyl)(methyl)amino)-1-methyl-1H-pyrazolo[4,3-c]pyridin-3-yl)-5-(trifluoromethyl)phenol]
